{
  "source": "patent US20170107462A1",
  "about": "“ARRAY OF FABRIC TREATMENT PRODUCTS” (The Procter & Gamble Company, priority 2015, published 2017)",
  "test": "Blocker Index (BI), expert graders on malodorous fabric swatches",
  "parameters": "key: 0-3 malodor scale; 0 = clean untreated swatch",
  "text": "Blocker materials suitable for use in consumer products of the present invention are chosen for their ability to decrease malodor, while not interfering with perception of a fragrance. Material selection is done by assigning two indices to a test sample material from two reference scales in order to rank odor strengths. The two reference scales are the Fragrance Fidelity Index (FFI) scale and the Blocker Index (BI) scale. The FFI ranks the ability of the test sample material to impart a perceivable odor which could cause interference when combined with another fragrance and the BI ranks the ability of the test sample material to reduce malodor perception. The two methods for assigning the indices to a test sample on the FFI and the BI reference scales are given below.\nThe first step in the method for assigning a BI to a test sample material on the BI reference scale is to create the BI reference swatches. […] Fabric swatches for this test are white knit polycotton (4 inch×4 inch) swatches from EMC ordered as PC 50/50. The supplier is instructed to strip the swatches first, stripping involves washing twice with a fragrance-free detergent and rinsing three times.\nThe BI scale contains one clean swatch with no malodor applied. […] These solutions are pipetted to the middle of the swatches. […] After drying for 30 minutes in a vented hood, the swatches are wrapped in aluminum foil to prevent odor contamination to the treated swatch. A clean untreated swatch is also included as the lowest anchor point of reference for malodor strength on the BI scale. The BI reference scale swatches should be used within 0.5 to 12 hours and discarded after 12 hours. The swatches are used as scale anchor points when graders evaluate a test sample(s) and are assigned a Blocker Index (BI) as show in Table 12.\nThe perfumer/expert grader is asked to rank order swatches according to a scale between 0 and 3.\nThe reference swatches represent the 0, 1, 2, and 3 BIs on the BI reference scale, Table 12. […]",
  "data": [
    {"smiles": "CC(C)CC(=O)O", "note": "[isovaleric acid]", "values": [
      {"measurement": "BI grade of reference swatch, individual Expert Grader", "setting": "stripped swatch with 2 μL 0.08% isovaleric acid", "value": 2.0},
      {"measurement": "BI grade of reference swatch, individual Expert Grader", "setting": "stripped swatch with 5 μL 0.08% isovaleric acid", "value": 2.0},
      {"measurement": "BI grade of reference swatch, individual Expert Grader", "setting": "stripped swatch with 20 μL 0.08% isovaleric acid", "value": 3.0}
    ]}
  ]
}
